{"source": "paper PMC12598616", "about": "“Design and optimization of caspase-1-responsive fluorescent probes for pyroptosis imaging and anti-pyroptosis drug screening” (Chemical Science, 2025)", "tested_on": "puncture-induced IVDD rat model", "experiment": "In vivo fluorescence imaging of intervertebral disc degeneration", "design": "species or system Sprague-Dawley rat", "settings": "intradiscal injection, 0, 1, 2, 4 weeks after puncture", "experimental": "and signals were collected from 530 to 610 nm.\nChondrocytes spheroid cultivation\nChondrocytes were isolated from articular cartilage and resuspended in 1mL DMEM/F12 medium containing 10 μM ITS-A. A total of […] were counted and transferred into centrifuge tubes. The cells were incubated in these tubes with half of the medium changed periodically.\nIntracellular imaging in chondrocytes and 3D cell spheroids\nThe chondrocytes or 3D cell spheroids were seeded in dishes and cultured overnight. Subsequently, the cells or spheroids were incubated with H2O2 for 30, 60 and 90 minutes. Afterward, the cells were further incubated in medium containing 5 μM FPy1 for 1 hour. Fluorescence imaging was then performed with an excitation of 514 nm, and signals were […]\nFlow cytometry assays in THP-1 cells\nThe flow cytometry assays were performed to evaluate the response of FPy1 in THP-1 cells. THP-1 cells were seeded in 6-well plates at a density of 10^5 cells per well and cultured overnight. […] The results were analyzed with using FlowJo […]\nFixed cells or tissue sections were washed with PBS, permeabilized with 0.2 % Triton X-100 (Sigma–Aldrich) for 20 minutes, and blocked with 5 % bovine serum albumin for 1 hour at 37 °C. […] Staining results were examined under a fluorescence microscope (Olympus, IX83-FV3000) and quantified using ImageJ (Bethesda, MD, V1.8.0, NIH). […]", "data": [{"substance": "–FLTDG– [FPy1, RhoB donor, hNR quencher]", "values": [{"measurement": "in vivo fluorescence at puncture site", "setting": "Co5/6, Co6/7, Co7/8", "value": "significant enhancement of fluorescence at the corresponding areas"}, {"measurement": "differentiation of IVDD stages by fluorescence intensity", "value": "could significantly differentiate the four different stages of IVDD"}]}]}
